Laboratory results published in US20080044538A1, “Method For Pigment Solubilization, A pigment Composition And Its Use” (AKZO NOBEL N.V., priority 2004, published 2008).

Assay: Solubilization of pigment from Lucantin Pink CWD into oil with water and surfactant; absorbance of filtered oil-phase
Details: type A, mix 3 g, surfactant 2 g, Tobis fish-oil 35 g; for Absorbance at 474 nm after 1.5 days in refrigerator and filtration: 0.200 ml diluted to 10 ml

| Substance | % recov. after 1.5 days in refrigerator and filtration | Absorbance at 474 nm after 1.5 days in refrigerator and filtration |
| --- | --- | --- |
| Sorbitan monostearate | (30.7) % | 0.174 |
| sorbitan monooleate [Sorbitan ester monooleate] | (27.4) % | 0.157 |
